Experimental data from patent US4443607A, “1(2H)-Isoquinolone compounds and acid addition salts thereof” (priority 1981, dated 1984).
“And” between values parts separate entries of the source, which are not always exact repeats. Identical values can stand only once. Counter-ions that a name gives are not always drawn.

How the values were obtained:
gastric secretion = experiment: Gastric secretion inhibitory activity in pylorus-ligated rats; type: in vivo, Wistar male rats; settings: for Percent Inhibition (gastric juice) / Percent Inhibition (output secretion) / Amount of Gastric Juice / Amount of Output Secretion: 25 mg/kg into duodenum, 5 h; for Amount of Gastric Juice / Amount of Output Secretion: 10 rats, mean ± SD
Procedure: Five hours after the administration, the rats were sacrificed and gastric juice was collected. The volume and the pH value of the gastric juice and the degree of acid secretion were then determined.

stress ulcer [1] = experiment: Stress Ulcer (1), water-dipping restriction stress, non-fasted rats tied with steel wire; type: in vivo, Wistar male rats; settings: 50 mg/kg oral
Procedure: The test compound was administered orally to Wistar male rats (body weight, 200 to 230 g) and 30 minutes thereafter the rats were tied up with a steel wire and dipped in water at 23° C. in a tank to the level of the xiphisternum of rats. After leaving the rats in water for 7 hours, the rats were sacrificed and the stomach was extracted. 10 ml of a 1% formalin solution was injected into the stomach cavity and the stomach was dipped in a 1% formalin solution for 15 minutes to semi-harden the stomach.

aspirin-induced ulcer = experiment: Aspirin Ulcer in pylorus-ligated rats; type: in vivo, Wistar male rats; settings: for Percent Inhibition / Ulcerous Index: aspirin 100 mg/kg oral; for Ulcerous Index: mean ± SE
Procedure: The pylorus of Wistar male rats (body weight, 230 to 250 g) which fasted for 24 hours was ligated and, immediately thereafter, the test compound was administered into the duodenum. 15 hours thereafter, acetylsalicylic acid (Aspirin) was administered orally at a dose of 100 mg/kg. Seven hours after administration of acetylsalicylic acid, the rats were sacrificed and the gastric juice was collected. the stomach was then worked up in the same manner as above to determine the ulcerous index.

[2] = tested on: stomach mucous membrane blood flow; experiment: Blood flow increasing activity on stomach mucous membrane (aminopyrin clearance method); type: in vivo, Wistar male rats; settings: 3 mg/kg intravenous
Procedure: The cardia and pylorus of Wistar male rats (body weight, 250 to 300 g) which fasted 16 hours before abdominal section were ligated under urethane anesthesia, and a cannula was inserted into the preventriculus. In order to keep the stomach in normal state, the cannula was fixed externally and the incised abdomen was closed. Separately, a cannula filed with heparin was inserted into carotid artery.
After operation, the inside of stomach was thoroughly washed with warm physiological saline solution, and 2 ml of a gastric juice (prepared by adjusting a 5% aqueous solution of mannitol to a pH 3.5 with 0.15 N hydrochloric acid, hereinafter the same) was poured into the stomach. Then, aminopyrin was administered via femoral vein at a dose of 30 mg/kg and 30 minutes thereafter aminopyrin was continuously administered at a rate of 6.6 mg/kg/hour. 45 minutes after the commencement of continuous administration of aminopyrin, 2 ml of the gastric juice warmed at 37° C. was poured into the stomach and collected after 15 minutes.
The collection of gastric juice was conducted at 15 minute intervals and 2 ml of the gastric juice was poured into the stomach between the collections. The total volume of gastric juice collected was 5 ml; 2 ml of the gastric juice was first drawn by syringe pump, 2 ml of the gastric juice was poured into the stomach and then drawn, and finally 1 ml of gastric juice was poured into the stomach and then drawn. 2 ml of the gastric juice drawn (5 ml) was presented to quantitative determination.
Sixty minutes after the commencement of continuous administration of aminopyrin, 0.5 ml of blood was drawn from the carotid artery. Thereafter, 0.5 ml of blood was drawn twice (intermediate and end points of the continuous administration of aminopyrin).
The test compound was administered intravenously immediately after the third collection of gastric juice. […]
Then, the amount of aminopyrin in the blood sample and the gastric juice was determined quantitatively and the volume of blood flow in the stomach mucous membrane per gram of the stomach tissue per minute was calculated.

blood pressure = experiment: Anti-hypertensive activity in anesthetized cats; type: in vivo; settings: 5 to 10 mg/kg via femoral vein; urethane anesthesia
Procedure: Cats weighing 3 to 5 kg were anesthetized by intraperitoneal administration of urethane at a dose of 1.5 g/kg. The test compound was administered through a catheter into a femoral vein and the blood pressure was determined by a pressure transducer through a catheter inserted into the femoral artery.

stress ulcer [3] = experiment: Stress Ulcer (2), fasted rats in stress cage dipped in water; type: in vivo, Wistar male rats; settings: for Percent Inhibition / Ulcerous Index: 25 mg/kg oral, fasted 18 h; for Ulcerous Index: 7 h water immersion at 23° C., 7 rats, mean ± SD
Procedure: The test compound was administered orally to Wistar male rats (body weight, 180 to 200 g) which fasted for 18 hours before testing. 30 minutes thereafter, stress was loaded to the rats in a stress cage by dipping the cage into water at 23° C. to the level of the xiphisternum of rats. After leaving the rats in water for 7 hours, the rats were sacrificed and the stomach was extracted. The stomach was then worked up in the same manner as above to determine the ulcerous index.

[4] = tested on: blood flow in stomach mucous membrane; experiment: Recovery activity on blood flow decrease in stomach mucous membrane by blood drawing; type: in vivo, Wistar male rats; settings: 10 mg/kg intravenous
Procedure: Wistar male rats (body weight, 250 to 280 g) fasted for 24 hours and the blood flow in stomach mucous membrane was determined by the aminopyrin clearance method as described above under urethane anesthesia. After determination of blood flow, a blood sample was drawn in an amount equivalent to 3% of the body weight and, 5 minutes thereafter, the blood sample was reinstated. The blood flow was then determined at an interval of 15 minutes. The test compound was administered intravenously 15 minutes after the blood drawing.

SMILES | Percent Inhibition (gastric juice) (gastric secretion) [%] | Percent Inhibition (output secretion) (gastric secretion) [%] | Amount of Gastric Juice (gastric secretion) [mL] | Amount of Output Secretion (gastric secretion) [μ Eq.] | inhibition of ulcer generation (in words) (stress ulcer [1]) | duration of blood pressure lowering activity (blood pressure) | Percent Inhibition (stress ulcer [3]) [%] | Ulcerous Index (stress ulcer [3]) [mm] | also measured
CN/C(=N/CCSCc1nc[nH]c1C)NC#N [Cimetidine] | 32.7 | 52.6 | 2.26 ± 0.85 | 136.6 ± 74.19 | – | – | – | – | –
C=CCN(CC=C)C(C)Cn1cc(-c2ccccc2)c2ccccc2c1=O (stereo not shown) [Compound A, 2-(2-N,N-diallylaminopropyl)-4-phenyl-1(2H)-isoquinolone maleate] | – | – | – | – | inhibit the ulcer generation caused by water-dipping restriction stress | more than 2 hours | – | – | Percent Inhibition (stress ulcer [1]; 7 h water immersion at 23° C.): 62.2% and 75.5%; Ulcerous Index (stress ulcer [1]; 7 h water immersion at 23° C., 6 rats, mean ± SD): 10.5 ± 6.22 mm and 6.8 ± 3.19 mm; Percent Inhibition (aspirin-induced ulcer; 10 mg/kg i.d.): 29.41%; Ulcerous Index (aspirin-induced ulcer; 10 mg/kg i.d.): 42.28 ± 2.56 mm; Percent Inhibition (aspirin-induced ulcer; 25 mg/kg i.d.): 42.98%; Ulcerous Index (aspirin-induced ulcer; 25 mg/kg i.d.): 34.15 ± 4.37 mm; Percent Inhibition (aspirin-induced ulcer; 50 mg/kg i.d.): 57.52%; Ulcerous Index (aspirin-induced ulcer; 50 mg/kg i.d.): 25.44 ± 3.41 mm; inhibition of aspirin-induced ulcer (in words) (aspirin-induced ulcer; 10, 25, 50 mg/kg i.d.): inhibits the aspirin-induced ulcer at dose levels of 10, 25, 50 mg/kg, with dependency upon dose; time of maximum percent increase in blood flow [2]: 30 min; stomach mucous membrane blood flow increasing activity (in words) ([2]; 15, 30 and 45 minutes after administration): significance increasing activity on the stomach mucous membrane blood flow; percent increase in blood flow (maximum) ([2]; 30 minutes): about 50%
C=CCN(CC=C)CC(C)Cn1cc(-c2ccccc2)c2ccccc2c1=O (stereo not shown) [Compound B, 2-(3-N,N-diallylamino-2-methylpropyl)-4-phenyl-1(2H)-isoquinolone hydrochloride] | – | – | – | – | inhibit the ulcer generation caused by water-dipping restriction stress | more than 2 hours | – | – | –
CC(N)Cn1cc(-c2ccccc2)c2ccccc2c1=O.O=C(O)/C=C\C(=O)O (stereo not shown) [Compound C, 2-(2-aminopropyl)-4-phenyl-1(2H)-isoquinolone maleate] | 54.2 | 56.3 | 1.54 ± 0.58 | 126.0 ± 40.42 | – | – | 52.8 | 14.6 ± 8.70 | stress ulcer inhibitory activity (in words) (stress ulcer [3]; compared with propantheline bromide): substantially equivalent to that of propantheline bromide; recovery activity on blood flow decrease (in words) [4]: significant recovery activity on blood flow decrease in stomach mucous membrane by blood drawing; Blood Flow in Mucous Membrane, 15 min. ([4]; 15 min., 3 rats, mean ± SD): 88.4 ± 36.9%; Blood Flow in Mucous Membrane, 30 min. ([4]; 30 min., 3 rats, mean ± SD): 92.7 ± 23.5%; Blood Flow in Mucous Membrane, 45 min. ([4]; 45 min., 3 rats, mean ± SD): 98.2 ± 10.2%; Blood Flow in Mucous Membrane, 60 min. ([4]; 60 min., 3 rats, mean ± SD): 101.4 ± 8.8%; Blood Flow in Mucous Membrane, 0 ([4]; time 0 (baseline), 3 rats): 100%; gastric secretion inhibitory activity (in words) (gastric secretion; compared with propantheline bromide and Cimetidine): substantially equivalent to that of propantheline bromide but higher than that of Cimetidine
CC(C)[N+](C)(CCOC(=O)C1c2ccccc2Oc2ccccc21)C(C)C [Propantheline Bromide] | 56.5 | 58.8 | 1.46 ± 0.63 | 118.8 ± 63.51 | – | – | 51.9 | 14.9 ± 10.67 | –
